The record followed here is patent publication US20250313575A1, “MACROCYCLES AS LRRK2 INHIBITORS, PHARMACEUTICAL COMPOSITIONS, AND USES THEREOF” (Merck Sharp & Dohme LLC, priority 2022, published 2025).

In the assay the target is GST-tagged truncated human mutant G2019S LRRK2 (Homo sapiens (Human), UniProt Q5S007, G2019S). The assay is described as follows: LRRK2 G2019S Km ATP LanthaScreen assay. The class given is biochemical. The note with it: G2019S LRRK2, 134 μM ATP (Km ATP), LRRKtide substrate. Put shortly: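 TR-FRET assay with GST-tagged truncated human G2019S LRRK2 (1.25 nM), preincubated with compound 15 min, then reacted with fluorescein-LRRKtide and 134 μM ATP (Km) in Tris pH 8.5 buffer, 90 min, ambient temperature. Tb-anti-phospho-LRRKtide detection, 520/495 nm ratio; IC50 by 4-parameter logistic fit, top concentration 9.99 μM in DMSO, 10 points.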
Sequence of GST-tagged truncated human mutant G2019S LRRK2 (Q5S007 970-2527 G2019S): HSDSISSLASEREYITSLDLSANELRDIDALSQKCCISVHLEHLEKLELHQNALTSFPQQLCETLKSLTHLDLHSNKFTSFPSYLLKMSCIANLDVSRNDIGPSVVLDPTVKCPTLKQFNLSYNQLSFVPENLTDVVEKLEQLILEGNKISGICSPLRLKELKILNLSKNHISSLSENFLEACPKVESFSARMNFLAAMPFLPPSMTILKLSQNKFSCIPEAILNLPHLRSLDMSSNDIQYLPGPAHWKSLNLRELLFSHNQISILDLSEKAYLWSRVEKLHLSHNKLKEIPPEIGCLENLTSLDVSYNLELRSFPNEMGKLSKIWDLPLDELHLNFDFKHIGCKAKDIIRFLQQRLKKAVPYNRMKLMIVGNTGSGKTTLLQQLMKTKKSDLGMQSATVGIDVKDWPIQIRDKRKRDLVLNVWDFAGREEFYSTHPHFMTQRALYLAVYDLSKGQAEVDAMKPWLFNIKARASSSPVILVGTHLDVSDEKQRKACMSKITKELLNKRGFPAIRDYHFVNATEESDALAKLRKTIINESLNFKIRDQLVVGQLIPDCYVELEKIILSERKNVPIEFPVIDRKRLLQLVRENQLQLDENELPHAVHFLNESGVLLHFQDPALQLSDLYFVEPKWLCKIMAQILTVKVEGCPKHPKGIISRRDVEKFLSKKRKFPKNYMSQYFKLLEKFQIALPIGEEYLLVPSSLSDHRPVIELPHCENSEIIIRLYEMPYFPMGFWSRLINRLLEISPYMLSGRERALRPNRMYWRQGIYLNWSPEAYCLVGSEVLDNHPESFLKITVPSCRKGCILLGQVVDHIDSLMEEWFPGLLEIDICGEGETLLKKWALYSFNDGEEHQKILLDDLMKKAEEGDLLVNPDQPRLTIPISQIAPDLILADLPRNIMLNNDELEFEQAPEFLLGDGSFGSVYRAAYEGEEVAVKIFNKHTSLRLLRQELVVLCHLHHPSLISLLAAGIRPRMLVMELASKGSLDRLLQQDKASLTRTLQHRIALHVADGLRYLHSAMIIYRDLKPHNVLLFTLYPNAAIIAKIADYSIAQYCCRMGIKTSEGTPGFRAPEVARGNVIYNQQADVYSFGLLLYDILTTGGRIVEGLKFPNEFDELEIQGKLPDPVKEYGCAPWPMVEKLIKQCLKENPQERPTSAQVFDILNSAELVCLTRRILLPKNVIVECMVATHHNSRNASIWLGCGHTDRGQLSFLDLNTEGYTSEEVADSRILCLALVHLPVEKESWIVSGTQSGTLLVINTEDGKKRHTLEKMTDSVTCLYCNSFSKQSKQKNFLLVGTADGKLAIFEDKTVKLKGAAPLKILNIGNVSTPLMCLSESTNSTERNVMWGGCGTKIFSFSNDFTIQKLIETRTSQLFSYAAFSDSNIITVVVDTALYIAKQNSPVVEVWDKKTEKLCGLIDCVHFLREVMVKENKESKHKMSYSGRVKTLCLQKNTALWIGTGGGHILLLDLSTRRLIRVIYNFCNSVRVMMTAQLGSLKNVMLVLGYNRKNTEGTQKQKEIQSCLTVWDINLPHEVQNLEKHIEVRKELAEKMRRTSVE
In general terms: In TR-FRET formats the signal depends on donor and acceptor labels being close together.

Consider `CC(C)n1nc(C2C[C@@H]2C#N)c2c1Nc1ncc(C(F)(F)F)c(n1)N[C@@H]1COC[C@H]1CO2` (single isomer, unassigned) [Ex-2.45, (1S,2S)- or (1R,2R)-2-((10aS,13aS)-3-isopropyl-8-(trifluoromethyl)-3,4,10a,11,13a,14-hexahydro-10H,13H-5,9-(azeno)furo[3,4-k]pyrazolo[4,3-b][1]oxa[4,6,10]triazacyclotridecin-1-yl)cyclopropane-1-carbonitrile], for which the “LRRK2 pIC50” value is reported as 8.32.

In the case of `CCn1nc(C(F)(F)F)c2c1OC[C@@H]1COC[C@H]1Nc1nc(ncc1Cl)N2` [Ex-1.20, (10aS,13aS)-8-chloro-1-ethyl-3-(trifluoromethyl)-1,4,10a,11,13a,14-hexahydro-10H,13H-5,9-(azeno)furo[3,4-k]pyrazolo[3,4-b][1]oxa[4,6,10]triazacyclotridecine], the “LRRK2 pIC50” value is given as 9.42.

On to `CC(C)(O)Cn1nc(C2CC2)c2c1OC[C@@H]1CC[C@H]1Nc1nc(ncc1C(F)(F)F)N2` [Ex-1.21, 1-((10aR,12aR)-3-cyclopropyl-8-(trifluoromethyl)-10,10a,11,12,12a,13-hexahydro-5,9-(azeno)cyclobuta[k]pyrazolo[3,4-b][1]oxa[4,6,10]triazacyclotridecin-1(4H)-yl)-2-methylpropan-2-ol], for which the “LRRK2 pIC50” value is given as more than 10.09.

Take `Cc1cnc2nc1N[C@H](C)CCOc1c(c(C)nn1C(C)(C)CO)N2` [Ex-8.1, (R)-2-methyl-2-(3,8,11-trimethyl-10,11,12,13-tetrahydro-5,9-(azeno)pyrazolo[3,4-b][1]oxa[4,6,10]triazacyclotridecin-1 (4H)-yl)propan-1-ol]: the “LRRK2 pIC50” value is given as more than 10.09.

As to `Cc1nn(C)c2c1Nc1ncc(C(F)(F)F)c(n1)NCC1(CC1)CO2` [Ex-1.23, 1′,3′-dimethyl-8′-(trifluoromethyl)-1′,4′,10′,11′-tetrahydro-13′H-spiro[cyclopropane-1,12′-[5,9](azeno)pyrazolo[3,4-b][1]oxa[4,6,10]triazacyclotridecine]], the “LRRK2 pIC50” value was 9.47.

Consider `CC1CCOc2c(C(C)(C)C#N)nn(C3CCC3)c2Nc2ncc(C(F)(F)F)c(n2)N1` (single isomer, unassigned) [Ex-2.30, (R)- or (S)-butyl-7-methyl-10-(trifluoromethyl)-1,5,6,7,8,14-hexahydro-9,13-(azeno)pyrazolo[4,3-b][1]oxa[4,6,10]triazacyclotridecin-3-yl)-2-methylpropanenitrile], for which the “LRRK2 pIC50” value was 10.03.

Take `O[C@@H]1CC[C@H]1n1nc(C2CC2)c2c1OC[C@@H]1COC[C@H]1Nc1nc(ncc1C(F)(F)F)N2` (single isomer, unassigned) [Ex-6.9, (1R,2R)- or (1S,2S)-2-((10aS,13aS)-3-cyclopropyl-8-(trifluoromethyl)-10a,11,13a, 14-tetrahydro-10H,13H-5,9-(azeno)furo[3,4-k]pyrazolo[3,4-b][1]oxa[4,6,10]triazacyclotridecin-1(4H)-yl)cyclobutan-1-ol]: the “LRRK2 pIC50” value is given as more than 10.09.

As to `Cc1nn(C2CCC2)c2c1OC[C@@H]1COC[C@H]1Nc1nc(ncc1C(F)(F)F)N2` [Ex-2.28, (3aR,15aR)- or (3aS,15aS)-11-cyclobutyl-13-methyl-6-(trifluoromethyl)-2,3,3a,4,10,11,15,15a-octahydro-5,9-(azeno)furo[3,2-k]pyrazolo[4,3-b][1]oxa[4,6,10]triazacyclotridecine], the “LRRK2 pIC50” value was found to be 9.64.

Take `Cc1nn(C2CCC2)c2c1OC[C@@H]1CC[C@H]1Nc1nc(ncc1C(F)(F)F)N2` [Ex-2.3, (10aR,12aR)- or (10aS,12aS)-3-Cyclobutyl-1-methyl-8-(trifluoromethyl)-3,4,10,10a,11,12,12a,13-octahydro-5,9-(azeno)cyclobuta[k]pyrazolo[4,3-b][1]oxa[4,6,10]triazacyclotridecine]: the “LRRK2 pIC50” value was 9.12.

Consider `Cc1nn(C2CCC2)c2c1OCC1CCCC1Nc1nc(ncc1C(F)(F)F)N2` [Ex-5.5, (10aR,13aR)- or (10aS,13aS)-3-cyclobutyl-1-methyl-8-(trifluoromethyl)-3,4,10a,11,12,13,13a,14-octahydro-10H-5,9-(azeno)cyclopenta[k]pyrazolo[4,3-b][1]oxa[4,6, 10]triazacyclotridecine], for which the “LRRK2 pIC50” value came to 10.06.

With `Cc1nn(C2CCC2)c2c1OC[C@@H]1CN(CCO1)c1nc(ncc1C(F)(F)F)N2` (single isomer, unassigned) [Ex-21.2, (6R)- or (6S)-1-cyclobutyl-3-methyl-12-(trifluoromethyl)-1,5,6,8,9,16-hexahydro-11,15-(azeno)-6,10-methanopyrazolo[4,3-e][1,4]dioxa[7,9,13]triazacyclopentadecine], the “LRRK2 pIC50” value was determined as 8.07.

For `CC1CCOc2c(C3CC3)nn(C)c2Nc2ncc(C(F)(F)F)c(n2)N1` (single isomer, unassigned) [Ex-2.19, (R)- or (S)-3-cyclopropyl-1,7-dimethyl-10-(trifluoromethyl)-1,5,6,7,8,14-hexahydro-9,13-(azeno)pyrazolo[4,3-b][1]oxa[4,6,10]triazacyclotridecine], the “LRRK2 pIC50” value was 8.78.

Consider `Cc1nn(C(C)C)c2c1OC[C@@H]1CC[C@H]1Nc1cc(ncc1Cl)N2` [Ex-13.4, (10aR,12aR)-8-chloro-3-isopropyl-1-methyl-3,4,10,10a,11,12,12a,13-octahydro-5,9-(metheno)cyclobuta[k]pyrazolo[4,3-b][1]oxa[4,6,10]triazacyclotridecine], for which the “LRRK2 pIC50” value was determined as 9.61.

For `Cc1nn(C)c2c1CCC[C@@H](C)Nc1nc(ncc1C(F)(F)F)N2` (single isomer, unassigned) [Ex-11.1, (R)- or (S)-1,3,7-Trimethyl-10-(trifluoromethyl)-4,5,6,7,8,14-hexahydro-1H-9,13-(azeno)pyrazolo[4,3-l][1,3,7]triazacyclotridecine], the “LRRK2 pIC50” value is 8.49.

In the case of `Cc1nn(C)c2c1CCC[C@@H](C)Nc1nc(ncc1C(F)(F)F)N2` (single isomer, unassigned) [Ex-11.2, (R)- or (S)-1,3,7-Trimethyl-10-(trifluoromethyl)-4,5,6,7,8,14-hexahydro-1H-9,13-(azeno)pyrazolo[4,3-l][1,3,7]triazacyclotridecine], the IC50 (read-out: LRRK2 pIC50 (converted)) was 3.16 nM.

With `Cc1nn(C)c2c1OCC1(CC1)CNc1nc(ncc1C(F)(F)F)N2` [Ex-2.5, 1′,3′-dimethyl-10′-(trifluoromethyl)-1′,7′,8′,14′-tetrahydro-5′H-spiro[cyclopropane-1,6′-[9,13](azeno)pyrazolo[4,3-b][1]oxa[4,6,10]triazacyclotridecine]], the “LRRK2 pIC50” value was more than 10.09.

Regarding `CCOC(=O)[C@@H]1C[C@@H]1c1nn(C(C)C)c2c1OC[C@@H]1COC[C@H]1Nc1nc(ncc1C(F)(F)F)N2` [Ex-2.46, ethyl (1R,2S)- or ethyl (1S,2R)-2-((10aS,13aS)-3-isopropyl-8-(trifluoromethyl)-3,4,10a,11,13a,14-hexahydro-10H,13H-5,9-(azeno)furo[3,4-k]pyrazolo[4,3-b][1]oxa[4,6,10]triazacyclotridecin-1-yl)cyclopropane-1-carboxylate], the “LRRK2 pIC50” value worked out at 6.66.

Take `Cc1nn(C(C)(C)CO)c2c1Nc1ncc(C(F)(F)F)c(n1)N[C@H](C)CCO2` [Ex-7.3, (R)-2-(3,11-dimethyl-8-(trifluoromethyl)-10,11,12,13-tetrahydro-5,9-(azeno)pyrazolo[3,4-b][1]oxa[4,6,10]triazacyclotridecin-1(4H)-yl)-2-methylpropan-1-ol]: the “LRRK2 pIC50” value is on record as more than 10.09.

`Cc1nn(C2CCC2)c2c1OC[C@@H]1COC[C@H]1Nc1nc(ncc1F)N2` [Ex-2.66, (10aS,13aS)-3-cyclobutyl-8-fluoro-1-methyl-3,4,10a,11,13a,14-hexahydro-10H,13H-5,9-(azeno)furo[3,4-k]pyrazolo[4,3-b][1]oxa[4,6,10]triazacyclotridecine]: the “LRRK2 pIC50” value is on record as 8.43.

In the case of `Cn1cc(C2CC2c2nn(C3CCC3)c3c2OC[C@@H]2COC[C@H]2Nc2nc(ncc2C(F)(F)F)N3)cn1` (stereo partly drawn) [Ex-2.70, (10aS,13aS)-3-cyclobutyl-1-((1S,2S)- or (10aS,13aS)-3-cyclobutyl-1-((IR,2R)-2-(1-methyl-1H-pyrazol-4-yl)cyclopropyl)-8-(trifluoromethyl)-3,4,10a,11,13a,14-hexahydro-10H,13H-5,9-(azeno)furo[3,4-k]pyrazolo[4,3-b][1]oxa[4,6,10]triazacyclotridecine], the “LRRK2 pIC50” value is reported as 9.35.

For `COC(=O)C(C)(C)n1nc(C)c2c1OCC[C@@H](C)Nc1nc(ncc1C(F)(F)F)N2` [Ex-1.5, methyl (R)-2-(3,11-dimethyl-8-(trifluoromethyl)-10,11,12,13-tetrahydro-5,9-(azeno)pyrazolo[3,4-b][1]oxa[4,6,10]triazacyclotridecin-1(4H)-yl)-2-methylpropanoate], the “LRRK2 pIC50” value is given as 8.73.

For the compound `Cc1nn(C2CC2(F)F)c2c1OCC1COCC1Nc1nc(ncc1C(F)(F)F)N2` [Ex-2.58, (10aS,13aS)-3-((R)-2,2-difluorocyclopropyl)-1-methyl-8-(trifluoromethyl)-3,4,10a,11,13a,14-hexahydro-10H,13H-5,9-(azeno)furo[3,4-k]pyrazolo[4,3-b][1]oxa[4,6,10]triazacyclotridecine (10aS,13aS)-3-((S)-2,2-difluorocyclopropyl)-1-methyl-8-(trifluoromethyl)-3,4,10a,11,13a,14-hexahydro-10H,13H-5,9-(azeno)furo[3,4-k]pyrazolo[4,3-b][1]oxa[4,6,10]triazacyclotridecine], the “LRRK2 pIC50” value is listed as 8.78.

Turning to `Cc1nn(C2CCC2)c2c1OC[C@H]1CN(C3COCC3F)C[C@@H]1Nc1nc(ncc1C(F)(F)F)N2` (mixture of isomers) [Ex-3.1, (10aS,13aR)- and (10aR,13aS)-3-cyclobutyl-12-(4-fluorotetrahydrofuran-3-yl)-1-methyl-8-(trifluoromethyl)-3,4,10a,11,12,13,13a,14-octahydro-10H-5,9-(azeno)pyrazolo[4,3-b]pyrrolo[3,4-k][1]oxa[4,6,10]triazacyclotridecine], the “LRRK2 pIC50” value is given as more than 10.09.
